Data from ChEMBL document CHEMBL1136981, “Carbamates as potent calcitonin gene-related peptide antagonists with improved solution stability” (Bioorg Med Chem Lett, 2009).

What was measured:
[1] = Solubility at pH 7; format: physicochemical; details: buffer
[2] = molecular target: Calcitonin gene-related peptide type 1 receptor (Homo sapiens, UniProt Q16602); experiment: Binding affinity to human CGRP receptor
[3] = Oxidative stability assessed as compound remaining in water at 0.15 mg/mL at pH 4 after 48 hrs in presence of free radical generator AAPH; format: physicochemical; details: read-out: Activity
[4] = Hydrolytic stability assessed as compound remaining in water at 0.15 mg/mL at pH 4 after 4 weeks; format: physicochemical; details: read-out: Activity
[5] = Hydrolytic stability assessed as formation of 8-fluoro-3-(piperidin-4-yl)-3,4-dihydroquinazolin-2(1H)-one in 0.05 M buffer at pH 5 after 12 weeks; format: physicochemical; set-up: scale not given: the % may be the effect or the level left; details: pH 5, 2016 h
[6] = Oxidative stability assessed as formation of N-((R)-1-(1,4'-bipiperidin-1'-yl)-3-(7-methyl-1H-indazol-5-yl)-1-oxopropan-2-yl)-4-(8-fluoro-4-hydroxy-2-oxo-1,2-dihydroquinazolin-3(4H)-yl)piperidine-1-carboxamide in 0.05 M buffer at pH 5 after 12 weeks; format: physicochemical; details: pH 5, 2016 h
[7] = Hydrolytic stability assessed as formation of (R)-2-(4-(8-fluoro-2-oxo-1,2-dihydroquinazolin-3(4H)-yl)piperidine-1-carboxamido)-3-(7-methyl-1H-indazol-5-yl)propanoic acid in 0.05 M buffer at pH 5 after 12 weeks; format: physicochemical; set-up: scale not given: the % may be the effect or the level left; details: pH 5, 2016 h

Calcitonin gene-related peptide type 1 receptor, sequence (Q16602 whole entry): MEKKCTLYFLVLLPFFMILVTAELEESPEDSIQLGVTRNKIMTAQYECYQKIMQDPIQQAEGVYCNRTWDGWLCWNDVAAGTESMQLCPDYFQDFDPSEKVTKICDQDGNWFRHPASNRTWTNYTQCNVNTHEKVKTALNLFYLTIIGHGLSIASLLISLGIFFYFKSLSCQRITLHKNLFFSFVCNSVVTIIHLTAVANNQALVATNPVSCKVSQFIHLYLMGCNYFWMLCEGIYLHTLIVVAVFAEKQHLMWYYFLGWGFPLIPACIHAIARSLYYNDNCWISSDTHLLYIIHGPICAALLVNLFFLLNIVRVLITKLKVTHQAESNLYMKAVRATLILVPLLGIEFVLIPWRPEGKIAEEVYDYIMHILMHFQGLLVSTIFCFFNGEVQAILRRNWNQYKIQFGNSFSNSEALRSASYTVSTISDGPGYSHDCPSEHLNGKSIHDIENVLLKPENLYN

Row | IC50 [2] | SMILES | further results
1 | 0.017 nM | Cc1cc(C[C@@H](OC(=O)N2CCC(c3cc4ccccc4[nH]c3=O)CC2)C(=O)N2CCC(N3CCCCC3)CC2)cc2cn[nH]c12 | solubility [1]: > 50 mg/mL; remaining at 48 h, 0.15 mg/mL [3]: 97%; remaining at 672 h, 0.15 mg/mL [4]: 99%
2 |  | Cc1cc(C[C@@H](NC(=O)N2CCC(N3Cc4cccc(F)c4NC3=O)CC2)C(=O)N2CCC(N3CCCCC3)CC2)cc2cn[nH]c12 | Activity [5]: 0.4%; Activity [6]: 2%; Activity [7]: 0.2%; remaining at 48 h, 0.15 mg/mL [3]: 72%; remaining at 672 h, 0.15 mg/mL [4]: 56%
3 | 0.011 nM | Cc1cc(C[C@@H](OC(=O)N2CCC(N3Cc4cccc(F)c4NC3=O)CC2)C(=O)N2CCC(N3CCCCC3)CC2)cc2cn[nH]c12 | 
4 | 0.057 nM | Cc1cc(C[C@@H](OC(=O)N2CCC(c3cc4cccc(F)c4[nH]c3=O)CC2)C(=O)N2CCC(N3CCCCC3)CC2)cc2cn[nH]c12 | 
5 | 0.063 nM | Cc1cc(C[C@@H](OC(=O)N2CCC(c3cc4ccccc4[nH]c3=O)CC2)C(=O)N2CCN(c3ccncc3)CC2)cc2cn[nH]c12 | 
6 | 0.02 nM | Cc1cc(C[C@@H](OC(=O)N2CCC(c3cc4ccccc4[nH]c3=O)CC2)C(=O)N2CCN(C3CCCCC3)CC2)cc2cn[nH]c12 | 
7 | 0.053 nM | Cc1cc(C[C@@H](OC(=O)N2CCC(c3cc4ccccc4[nH]c3=O)CC2)C(=O)N2CCC(N3CC=CCC3)CC2)cc2cn[nH]c12 | 
8 | 1.8 nM | Cc1cc(C[C@@H](OC(=O)N2CCC(c3cc4ccccc4[nH]c3=O)CC2)C(=O)N2CCCCC2)cc2cn[nH]c12 | 
9 | 0.13 nM | Cc1cc(C[C@@H](OC(=O)N2CCC(c3cc4ccccc4[nH]c3=O)CC2)C(=O)N2CCN(c3ccc(F)cc3)CC2)cc2cn[nH]c12 | 
10 | 0.022 nM | Cc1cc(C[C@@H](OC(=O)N2CCC(N3Cc4ccc(F)cc4NC3=O)CC2)C(=O)N2CCC(N3CCCCC3)CC2)cc2cn[nH]c12 | 
11 | 0.068 nM | Cc1cc(C[C@@H](OC(=O)N2CCC(n3cc(-c4ccccc4)[nH]c3=O)CC2)C(=O)N2CCC(N3CCCCC3)CC2)cc2cn[nH]c12 | 
12 | 0.044 nM | Cc1cc(C[C@@H](OC(=O)N2CCC(c3cc4ccccc4[nH]c3=O)CC2)C(=O)N2CCC3(CCN(C)CC3)CC2)cc2cn[nH]c12 | 
13 | 0.01 nM | Cc1cc(C[C@@H](OC(=O)N2CCC(N3Cc4ccccc4NC3=O)CC2)C(=O)N2CCC(N3CCCCC3)CC2)cc2cn[nH]c12 | 
14 | 0.18 nM | Cc1cc(C[C@@H](OC(=O)N2CCC(c3cc4ccccc4cn3)CC2)C(=O)N2CCC(N3CCCCC3)CC2)cc2cn[nH]c12 | 
